The results in this text go back to US7179830B2, “Substituted thienoimidazoles useful for disease treatment and prevention” (Sanofi-aventis Deutschland GmbH, priority 2003, dated 2007).

Counter-ions that a name gives are not always drawn.

Type in all cases: cell-based
One assay concerns the target T1, NHE3 (Homo sapiens, UniProt P48764).
T1 construct: host or cells: cells, not specified
T1 sequence (P48764 26-834): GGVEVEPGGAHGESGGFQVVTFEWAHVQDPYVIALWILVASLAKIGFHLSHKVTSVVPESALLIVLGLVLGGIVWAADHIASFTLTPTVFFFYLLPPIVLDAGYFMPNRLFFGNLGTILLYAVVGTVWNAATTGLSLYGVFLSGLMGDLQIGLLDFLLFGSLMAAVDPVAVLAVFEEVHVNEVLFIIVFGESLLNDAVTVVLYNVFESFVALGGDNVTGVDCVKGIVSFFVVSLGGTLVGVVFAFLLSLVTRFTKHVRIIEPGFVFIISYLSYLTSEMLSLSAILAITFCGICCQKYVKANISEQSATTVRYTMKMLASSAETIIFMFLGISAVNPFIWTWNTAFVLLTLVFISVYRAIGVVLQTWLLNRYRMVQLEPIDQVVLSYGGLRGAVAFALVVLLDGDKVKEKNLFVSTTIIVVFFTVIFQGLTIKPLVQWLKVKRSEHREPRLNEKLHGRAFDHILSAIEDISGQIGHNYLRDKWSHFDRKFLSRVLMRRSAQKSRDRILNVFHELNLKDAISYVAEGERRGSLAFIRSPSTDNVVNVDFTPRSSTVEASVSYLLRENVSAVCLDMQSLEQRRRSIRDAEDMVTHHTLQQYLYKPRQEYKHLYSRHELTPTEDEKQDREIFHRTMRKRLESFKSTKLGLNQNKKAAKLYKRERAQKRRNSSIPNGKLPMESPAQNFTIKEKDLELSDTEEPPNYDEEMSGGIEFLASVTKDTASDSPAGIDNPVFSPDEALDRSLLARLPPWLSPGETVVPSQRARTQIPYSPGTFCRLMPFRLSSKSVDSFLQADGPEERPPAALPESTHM
Briefly: Determination of the NHE inhibition: recovery of intracellular pH after acidification (BCECF fluorescence), NHE3. As to conditions: for IC50: pH recovery registered at three minutes. On the procedure:
[drawing 14] is obtained by adding saturated sodium hydrogencarbonate solution to a suspension of 306 mg of 2-(2-chloro-4-methyl-3-thienylamino)-1H-thieno[3,4-d]imidazole hydrochloride (example 5) in 40 ml of water, in the course of which a pH of 10 is established. After the suspension had been stirred at room temperature for 1 hour, the solid was filtered off and washed repeatedly with water, and the product was dried in an air stream. Colorless crystalline product, decomposition point from 180° C. Pharmacological Data: Determination of the NHE Inhibition Test Description:
This test determined the recovery of the intracellular pH (pHi) after acidification, and this recovery occurs in the case of functional NHE even under bicarbonate-free conditions. To this end, the pHi was determined using the pH-sensitive fluorescent dye BCECF (Calbiochem, the BCECF-AM precursor is used). The cells were initially loaded with BCECF. The BCECF fluorescence was determined in a Ratio Fluorescence Spectrometer (Photon Technology International, South Brunswick, N.J., USA) at excitation wavelengths of 505 and 440 nm and an emission wavelength of 535 nm and converted to the pHi by means of calibration curves. The cells had already been incubated in NH4Cl buffer (pH 7.4) in the course of the BCECF loading (NH4Cl buffer: 115 mM NaCl, 20 mM NH4Cl, 5 mM KCl, 1 mM CaCl2, 1 mM MgSO4, 20 mM Hepes, 5 mM glucose, 1 mg/ml BSA; a pH of 7.4 is established using 1 M NaOH). The intracellular acidification is induced by adding 975 μl of an NH4Cl-free buffer (see below) to 25 μl aliquots of the cells incubated in NH4Cl buffer. The subsequent rate of the pH recovery was registered at two minutes for NHE1, at five minutes for NHE2 and at three minutes for NHE3. For the calculation of the inhibitory potency of the tested substances, the cells were initially investigated in buffers in which complete or absolutely no pH recovery took place. For complete pH recovery (100%), the cells were incubated in Na^+-containing buffer (133.8 mM NaCl, 4.7 mM KCl, 1.25 mM CaCl2, 1.25 mM MgCl2, 0.97 mM Na2HPO4, 0.23 mM NaH2PO4, 5 mM Hepes, 5 mM glucose, a pH of 7.0 is established using 1 M NaOH). For the determination of the 0% value, the cells were incubated in an Na^+-free buffer (133.8 mM choline chloride, 4.7 mM KCl, 1.25 mM CaCl2, 1.25 mM MgCl2, 0.97 mM K2HPO4, 0.23 mM KH2PO4, 5 mM Hepes, 5 mM glucose, a pH of 7.0 is established using 1 M KOH). The substances to be tested were made up in the Na^+-containing buffer. The recovery of the intracellular pH at each tested concentration of a substance was expressed in percent of the maximum recovery. The percentages of the pH recovery were used to calculate the IC50 value of the particular substance for the individual NHE subtypes by means of the program Sigma-Plot.

Another assay has as its target T2, NHE2 (Homo sapiens, UniProt Q9UBY0).
T2 sequence (Q9UBY0 1-812): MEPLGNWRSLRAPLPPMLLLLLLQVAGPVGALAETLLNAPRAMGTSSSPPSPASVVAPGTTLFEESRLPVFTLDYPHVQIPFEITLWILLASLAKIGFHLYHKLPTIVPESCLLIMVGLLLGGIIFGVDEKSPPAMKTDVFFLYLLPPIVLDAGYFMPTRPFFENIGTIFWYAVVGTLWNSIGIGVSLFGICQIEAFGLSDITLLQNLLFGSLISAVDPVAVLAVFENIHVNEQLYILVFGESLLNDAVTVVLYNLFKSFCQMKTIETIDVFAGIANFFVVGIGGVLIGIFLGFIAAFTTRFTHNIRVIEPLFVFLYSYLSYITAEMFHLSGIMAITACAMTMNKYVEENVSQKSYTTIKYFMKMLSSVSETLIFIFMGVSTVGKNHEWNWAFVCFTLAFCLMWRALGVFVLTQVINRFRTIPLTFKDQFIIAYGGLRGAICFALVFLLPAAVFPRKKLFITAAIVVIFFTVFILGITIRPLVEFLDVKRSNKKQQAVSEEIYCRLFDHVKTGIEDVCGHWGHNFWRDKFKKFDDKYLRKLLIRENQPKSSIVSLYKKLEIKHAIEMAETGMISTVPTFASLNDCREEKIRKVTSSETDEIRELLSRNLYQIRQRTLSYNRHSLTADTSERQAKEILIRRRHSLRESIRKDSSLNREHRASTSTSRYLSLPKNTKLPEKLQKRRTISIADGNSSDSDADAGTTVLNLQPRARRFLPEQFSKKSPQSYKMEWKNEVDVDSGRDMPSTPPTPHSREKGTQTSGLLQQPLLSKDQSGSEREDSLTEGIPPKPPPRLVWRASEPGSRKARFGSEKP
Briefly: NHE inhibition, NHE2 subtype. The note with it: in a therapeutically utilizable concentration range. The method, then: (§1) This test determined the recovery of the intracellular pH (pHi) after acidification, and this recovery occurs in the case of functional NHE even under bicarbonate-free conditions. To this end, the pHi was determined using the pH-sensitive fluorescent dye BCECF (Calbiochem, the BCECF-AM precursor is used). The cells were initially loaded with BCECF. The BCECF fluorescence was determined in a Ratio Fluorescence Spectrometer (Photon Technology International, South Brunswick, N.J., USA) at excitation wavelengths of 505 and 440 nm and an emission wavelength of 535 nm and converted to the pHi by means of calibration curves. The cells had already been incubated in NH4Cl buffer (pH 7.4) in the course of the BCECF loading (NH4Cl buffer: 115 mM NaCl, 20 mM NH4Cl, 5 mM KCl, 1 mM CaCl2, 1 mM MgSO4, 20 mM Hepes, 5 mM glucose, 1 mg/ml BSA; a pH of 7.4 is established using 1 M NaOH). The intracellular acidification is induced by adding 975 μl of an NH4Cl-free buffer (see below) to 25 μl aliquots of the cells incubated in NH4Cl buffer. The subsequent rate of the pH recovery was registered at two minutes for NHE1, at five minutes for NHE2 and at three minutes for NHE3. For the calculation of the inhibitory potency of the tested substances, the cells were initially investigated in buffers in which complete or absolutely no pH recovery took place. […]

A further assay concerns the target NHE1 (Homo sapiens, UniProt P19634). The experiment in a line: NHE inhibition, NHE1 subtype. The note with it: in a therapeutically utilizable concentration range. The method, then:
as §1

Another assay has as its target T3, NHE5 (Homo sapiens, UniProt Q14940).
T3 sequence (Q14940 1-896): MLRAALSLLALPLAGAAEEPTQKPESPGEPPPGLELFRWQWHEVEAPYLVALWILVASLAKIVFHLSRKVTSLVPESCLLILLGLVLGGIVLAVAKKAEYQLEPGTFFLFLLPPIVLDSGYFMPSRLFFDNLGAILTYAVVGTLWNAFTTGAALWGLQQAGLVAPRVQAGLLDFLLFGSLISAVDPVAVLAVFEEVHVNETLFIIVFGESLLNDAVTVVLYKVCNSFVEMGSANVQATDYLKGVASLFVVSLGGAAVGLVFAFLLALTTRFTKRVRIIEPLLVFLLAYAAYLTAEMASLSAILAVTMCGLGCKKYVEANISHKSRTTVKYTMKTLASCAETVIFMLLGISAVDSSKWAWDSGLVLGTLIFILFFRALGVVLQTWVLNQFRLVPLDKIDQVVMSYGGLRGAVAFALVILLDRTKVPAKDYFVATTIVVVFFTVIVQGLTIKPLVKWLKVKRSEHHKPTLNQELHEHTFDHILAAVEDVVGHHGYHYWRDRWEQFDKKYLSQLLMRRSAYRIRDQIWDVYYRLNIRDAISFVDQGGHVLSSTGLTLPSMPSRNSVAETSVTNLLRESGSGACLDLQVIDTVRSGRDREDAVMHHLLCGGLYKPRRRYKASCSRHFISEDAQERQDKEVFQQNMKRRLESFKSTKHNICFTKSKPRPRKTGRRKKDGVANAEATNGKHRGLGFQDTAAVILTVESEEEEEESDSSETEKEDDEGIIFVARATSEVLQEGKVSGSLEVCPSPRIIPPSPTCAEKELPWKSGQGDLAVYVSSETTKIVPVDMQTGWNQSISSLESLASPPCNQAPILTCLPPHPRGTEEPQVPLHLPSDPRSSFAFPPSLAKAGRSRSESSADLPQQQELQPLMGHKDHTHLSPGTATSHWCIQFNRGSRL
The experiment in a line: NHE inhibition, NHE5 subtype. As to conditions: in a therapeutically utilizable concentration range.

NHE1, sequence (P19634 whole entry, species assumed): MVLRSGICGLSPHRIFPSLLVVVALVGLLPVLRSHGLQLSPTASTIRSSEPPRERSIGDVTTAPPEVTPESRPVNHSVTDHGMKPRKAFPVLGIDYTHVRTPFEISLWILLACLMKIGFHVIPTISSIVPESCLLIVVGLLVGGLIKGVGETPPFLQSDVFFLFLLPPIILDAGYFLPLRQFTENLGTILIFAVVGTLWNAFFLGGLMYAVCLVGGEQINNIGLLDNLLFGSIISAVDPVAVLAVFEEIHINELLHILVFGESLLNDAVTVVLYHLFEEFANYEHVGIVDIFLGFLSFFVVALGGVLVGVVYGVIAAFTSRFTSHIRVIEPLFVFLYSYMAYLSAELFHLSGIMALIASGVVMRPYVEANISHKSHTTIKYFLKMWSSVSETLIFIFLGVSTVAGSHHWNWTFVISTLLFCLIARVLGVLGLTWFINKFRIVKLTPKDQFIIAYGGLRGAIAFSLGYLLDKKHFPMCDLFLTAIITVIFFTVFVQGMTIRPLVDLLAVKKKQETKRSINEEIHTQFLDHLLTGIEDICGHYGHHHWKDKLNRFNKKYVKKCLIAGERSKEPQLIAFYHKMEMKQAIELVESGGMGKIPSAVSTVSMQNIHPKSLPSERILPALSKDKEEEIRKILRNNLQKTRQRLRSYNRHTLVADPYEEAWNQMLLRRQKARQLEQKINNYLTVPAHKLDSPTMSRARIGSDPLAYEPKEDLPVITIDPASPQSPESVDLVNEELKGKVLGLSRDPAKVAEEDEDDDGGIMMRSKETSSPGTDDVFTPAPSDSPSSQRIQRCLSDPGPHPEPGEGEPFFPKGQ

By IC50 is commonly meant the midpoint of a concentration-inhibition curve. The low end stands for greater potency in that assay, the high end for weaker potency in that assay. The compound `Clc1cccc(Cl)c1Nc1nc2cscc2[nH]1` [Example 2, 2-(2,6-Dichlorophenylamino)-1H-thieno[3,4-d]imidazole hydrochloride] returned an IC50 on NHE3 of 220 nM. As to `Cc1csc(Cl)c1Nc1nc2cscc2[nH]1` [Example 5, 2-(2-Chloro-4-methyl-3-thienylamino)-1H-thieno[3,4-d]imidazole hydrochloride], the half-inhibitory concentration (IC50) at NHE3 turned out to be 150 nM. For `FC(F)(F)c1ccccc1Nc1nc2cscc2[nH]1` [Example 6, 2-(2-Trifluoromethylphenylamino)-1H-thieno[3,4-d]imidazole hydrochloride], half-maximal inhibition on NHE3 (IC50) required 6510 nM. Compound `Cc1cccc(Cl)c1Nc1nc2cscc2[nH]1` [Example 9, 2-(2-Chloro-6-methylphenylamino)-1H-thieno[3,4-d]imidazole hydrochloride] gave a half-inhibitory concentration (IC50) against NHE3 of 1430 nM. Same read-out and setting: in the case of `Clc1csc(Cl)c1Nc1nc2cscc2[nH]1` [Example 10, 2-(2,4-Dichloro-3-thienylamino)-1H-thieno[3,4-d]imidazole hydrochloride] it was 320 nM. As for `Cc1csc(Cl)c1NC1=NCCN1` [tiamenidine], the “inhibitory action on NHE2” value on NHE2 was “no relevant inhibitory actions”. Further, the “inhibitory action on NHE1” value against NHE1 is given as “no relevant inhibitory actions”. The “inhibitory action on NHE5” value on NHE5 was “no relevant inhibitory actions”. On NHE3 (in a therapeutically utilizable concentration range), the “inhibitory action on NHE3” value is “no relevant inhibitory actions”.
